From PubChem BioAssay AID2060338 (Molecular Pharmacology Branch, DTP, NCI, 2025) come the findings set out here.

What is called IC50 is the concentration at which inhibition is half-maximal. What is called viability, T/C is the result in the treated group divided by that in the control group, in per cent.

This test deals with 556581-035-R-J1-PDC spheroids with HUVEC/MSC, viability. The test can be described thus: Anticancer human tumor 556581-035-R-J1-PDC patient-derived ovarian carcinoma cell line growth inhibition [IpAb]. Conditions: for viability, T/C: stronger effect = lower value. Summed up:
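Combinations with ipatasertib or abemaciclib were tested on tumour spheroids holding HUVEC (25%) and MSC (15%) alongside 60% malignant cells. Top concentration was at or near clinical Cmax (10 microM if undefined), descending in half-log steps.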

[1] abbreviates: curve of first compound, second compound 0.01 µM.
The mark [2] stands for this setting: curve of first compound, second compound 0.0316 µM.
The mark [3] stands for this setting: curve of first compound, second compound 0.1 µM.
[4] abbreviates: curve of first compound, second compound 0.316 µM.
The mark [5] stands for this setting: curve of first compound, second compound 1 µM.
Setting [6] is: second compound 0.01 µM, first compound 0.0316 µM.
[7] abbreviates: second compound 0.01 µM, first compound 0.1 µM.
Setting [8] is: second compound 0.01 µM, first compound 0.316 µM.
[9] abbreviates: second compound 0.01 µM, first compound 1 µM.
[10] abbreviates: second compound 0.01 µM, first compound 3.16 µM.
[11] abbreviates: second compound 0.01 µM, first compound 10 µM.
[12] abbreviates: second compound 0.0316 µM, first compound 0.0316 µM.
[13] abbreviates: second compound 0.0316 µM, first compound 0.1 µM.
Where [14] appears, read: second compound 0.0316 µM, first compound 0.316 µM.
Where [15] appears, read: second compound 0.0316 µM, first compound 1 µM.
Setting [16] is: second compound 0.0316 µM, first compound 3.16 µM.
The mark [17] stands for this setting: second compound 0.0316 µM, first compound 10 µM.
Setting [18] is: second compound 0.1 µM, first compound 0.0316 µM.
Setting [19] is: second compound 0.1 µM, first compound 0.1 µM.
[20] abbreviates: second compound 0.1 µM, first compound 0.316 µM.
Where [21] appears, read: second compound 0.1 µM, first compound 1 µM.
Where [22] appears, read: second compound 0.1 µM, first compound 3.16 µM.
Where [23] appears, read: second compound 0.1 µM, first compound 10 µM.
[24] abbreviates: second compound 0.316 µM, first compound 0.0316 µM.
Setting [25] is: second compound 0.316 µM, first compound 0.1 µM.
Where [26] appears, read: second compound 0.316 µM, first compound 0.316 µM.
The mark [27] stands for this setting: second compound 0.316 µM, first compound 1 µM.
[28] abbreviates: second compound 0.316 µM, first compound 3.16 µM.
[29] abbreviates: second compound 0.316 µM, first compound 10 µM.
Setting [30] is: second compound 1 µM, first compound 0.0316 µM.
Where [31] appears, read: second compound 1 µM, first compound 0.1 µM.
The mark [32] stands for this setting: second compound 1 µM, first compound 0.316 µM.
The mark [33] stands for this setting: second compound 1 µM, first compound 1 µM.
[34] abbreviates: second compound 1 µM, first compound 3.16 µM.
Where [35] appears, read: second compound 1 µM, first compound 10 µM.

Where “and” joins values, the source holds several entries; their conditions need not be identical. Equal entries are not always repeated.
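Note: spheroids exposed to compounds for 7 days before readout.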

With `Cn1nccc1Nc1nccc(-c2ccn(C(CO)c3ccc(Cl)c(F)c3)c(=O)c2)n1` (centres undefined) + CCN1CCN(Cc2ccc(Nc3ncc(F)c(-c4cc(F)c5nc(C)n(C(C)C)c5c4)n3)nc2)CC1, the half-inhibitory concentration (IC50) was 9.08 µM under setting [1]; 6.09 µM under setting [2]; 5.33 µM under setting [3]; 7.52 µM under setting [4]; 5.34 µM under setting [5]. Besides, the viability, T/C is 110% under setting [6]; 145% under setting [7]; 127% under setting [8]; 109% under setting [9]; 95.4% under setting [10]; 45.8% under setting [11]. Moreover, the viability, T/C was 119% under setting [12]; 140% under setting [13]; 128% under setting [14]; 98.5% under setting [15]; 72% under setting [16]; 34.8% under setting [17]. The viability, T/C reads like this: under setting [18], 107%; under setting [19], 123%; under setting [20], 134%; under setting [21], 119%; under setting [22], 63.4%; under setting [23], 33.8%. Also, the viability, T/C runs as follows: under setting [24], 92.2%; under setting [25], 103%; under setting [26], 144%; under setting [27], 101%; under setting [28], 87.3%; under setting [29], 37.9%. For the same compound, the viability, T/C is 78% under setting [30]; 85.5% under setting [31]; 128% under setting [32]; 72.3% under setting [33]; 71.5% under setting [34]; 27.2% under setting [35].
Take `COc1c(OCCCN2CCOCC2)ccc2c3n(c(=NC(=O)c4cnc(N)nc4)nc12)CCN3`: the viability, T/C was 72.5% and 103% (compound 0.00316 µM); 52.7% and 57.6% (compound 0.01 µM); 41.7% and 46.2% (compound 0.0316 µM); 32.3% and 38.2% (compound 0.1 µM); 11% and 11.5% (compound 0.316 µM); 2.47% and 3.86% (compound 1 µM). Also, under “curve of compound”, the IC50 is 0.0163 µM and 0.0244 µM.
Turning to `CCCS(=O)(=O)Nc1ccc(F)c(C(=O)c2c[nH]c3ncc(-c4ccc(Cl)cc4)cc23)c1F`, the viability, T/C by setting is: (compound 0.0316 µM) 93.4% and 104%; (compound 0.1 µM) 103% and 99.8%; (compound 0.316 µM) 105% and 108%; (compound 1 µM) 92.9% and 98.8%; (compound 3.16 µM) 110% and 104%; (compound 10 µM) 75.7% and 78.5%. Besides, the IC50 (curve of compound) is more than 10 µM.
Consider `CC1(C)CCC(CN2CCN(c3ccc(C(=O)NS(=O)(=O)c4ccc(NCC5CCOCC5)c([N+](=O)[O-])c4)c(Oc4cnc5[nH]ccc5c4)c3)CC2)=C(c2ccc(Cl)cc2)C1` + CCN1CCN(Cc2ccc(Nc3ncc(F)c(-c4cc(F)c5nc(C)n(C(C)C)c5c4)n3)nc2)CC1, for which the concentration for half-maximal inhibition (IC50) came out at 8.32 µM under setting [1]; 6.5 µM under setting [2]; 6.72 µM under setting [3]; 5.59 µM under setting [4]; 2.06 µM under setting [5]. The viability, T/C reads like this: under setting [6], 92.6%; under setting [7], 118%; under setting [8], 112%; under setting [9], 108%; under setting [10], 102%; under setting [11], 40.2%. Further, the viability, T/C is 106% under setting [12]; 111% under setting [13]; 108% under setting [14]; 98% under setting [15]; 95.5% under setting [16]; 23.7% under setting [17]. Besides, the viability, T/C by setting is: under setting [18], 122%; under setting [19], 104%; under setting [20], 107%; under setting [21], 94.4%; under setting [22], 91.6%; under setting [23], 29.9%. The viability, T/C is, setting by setting: under setting [24], 94%; under setting [25], 95.6%; under setting [26], 92.2%; under setting [27], 94.4%; under setting [28], 87.6%; under setting [29], 11.8%. Moreover, the viability, T/C reads like this: under setting [30], 67%; under setting [31], 58.1%; under setting [32], 68.6%; under setting [33], 56.8%; under setting [34], 45.1%; under setting [35], 6.15%.
With `CC(C)n1nc(-c2ccc3oc(N)nc3c2)c2c(N)ncnc21` + CCN1CCN(Cc2ccc(Nc3ncc(F)c(-c4cc(F)c5nc(C)n(C(C)C)c5c4)n3)nc2)CC1, the IC50 is 0.0044 µM under setting [1]; 0.00708 µM under setting [2]; 0.00503 µM under setting [3]; 0.00649 µM under setting [4]; less than 0.000316 µM under setting [5]. Also, the viability, T/C runs as follows: (second compound 0.01 µM, first compound 0.000316 µM) 108%; (second compound 0.01 µM, first compound 0.001 µM) 72.6%; (second compound 0.01 µM, first compound 0.00316 µM) 54.4%; (second compound 0.01 µM, first compound 0.01 µM) 44.2%; under setting [6], 26.4%; under setting [7], 22.2%. The viability, T/C by setting is: (second compound 0.0316 µM, first compound 0.000316 µM) 86.4%; (second compound 0.0316 µM, first compound 0.001 µM) 78.7%; (second compound 0.0316 µM, first compound 0.00316 µM) 60.7%; (second compound 0.0316 µM, first compound 0.01 µM) 46.8%; under setting [12], 27.5%; under setting [13], 19.7%. The viability, T/C reads like this: (second compound 0.1 µM, first compound 0.000316 µM) 89.6%; (second compound 0.1 µM, first compound 0.001 µM) 76.1%; (second compound 0.1 µM, first compound 0.00316 µM) 51.7%; (second compound 0.1 µM, first compound 0.01 µM) 45%; under setting [18], 26.4%; under setting [19], 20.2%. The viability, T/C is, setting by setting: (second compound 0.316 µM, first compound 0.000316 µM) 80.1%; (second compound 0.316 µM, first compound 0.001 µM) 69.8%; (second compound 0.316 µM, first compound 0.00316 µM) 61.5%; (second compound 0.316 µM, first compound 0.01 µM) 44.2%; under setting [24], 28.7%; under setting [25], 21.6%. In addition, the viability, T/C (second compound 1 µM, first compound 0.000316 µM) was 41.9%; the viability, T/C (second compound 1 µM, first compound 0.001 µM) was 52.7%; the viability, T/C (second compound 1 µM, first compound 0.00316 µM) was 38.4%; the viability, T/C (second compound 1 µM, first compound 0.01 µM) is 31.9%; the viability, T/C under setting [30] is 28.4%; the viability, T/C under setting [31] was 23.1%.
